Assay: Stability of crystalline anhydrous docetaxel and docetaxel trihydrate in solvents (FIG. 2)
Assay type: physicochemical
Settings: for stability in co-water solvent: co-water solvent (ACN/water/acetic acid) vs non-water solvent
Description: FIG. 2 illustrates the stability of crystalline anhydrous docetaxel and docetaxel trihydrate.

| Compound | growth of 7-epi-docetaxel on addition of acetic acid (addition of acetic acid) | stability in co-water solvent | stability in co-water solvent (listed as Docetaxel) | generation of impurity 7-epi-docetaxel (co-water solvent vs non-water solvent) | stability in acetonitrile compared with acetonitrile/water (9/1) (acetonitrile vs acetonitrile/water (9/1)) | stability compared with trihydrated form (1883-12-11, 1883-12-21, 2016-109-05) (in acetonitrile, FIG. 2) | stability compared with trihydrated form (see FIG. 2, solvent not stated at this place) |
| --- | --- | --- | --- | --- | --- | --- | --- |
| CC(=O)O[C@@]12CO[C@@H]1C[C@H](O)[C@@]1(C)C(=O)[C@H](O)C3=C(C)[C@@H](OC(=O)[C@H](O)[C@@H](NC(=O)OC(C)(C)C)c4ccccc4)C[C@@](O)([C@@H](OC(=O)c4ccccc4)[C@H]21)C3(C)C [docetaxel] | can be suppressed by the addition of acetic acid | less stable in co-water solvent | more stable in non-water solvent than co-water solvent | generated more rapidly in co-water solvent than in non-water solvent | – | – | – |
| CC(=O)O[C@@]12CO[C@@H]1C[C@H](O)[C@@]1(C)C(=O)[C@H](O)C3=C(C)[C@@H](OC(=O)[C@H](O)[C@@H](NC(=O)OC(C)(C)C)c4ccccc4)C[C@@](O)([C@@H](OC(=O)c4ccccc4)[C@H]21)C3(C)C [anhydrous form of docetaxel, docetaxel] | – | – | – | – | more stable in acetonitrile than in acetonitrile/water (9/1) | more stable | more stable than trihydrated form |

From patent US8357811B2, “Crystalline forms of docetaxel and process for preparation thereof” (ScnioPharm Singapore PTE Ltd., priority 2006, dated 2013)
